The text below walks through data of patent publication US7745450B2, “Pyrazolo[4,3-d]pyrimidines, processes for their preparation and methods for therapy” (Institute of Experimental Botany, priority 2002, dated 2010).

Each structure is given as a SMILES string. Read-outs that look alike come from different tables or passages of the source.

One data set has as its system DNA synthesis. The data set can be described thus: Inhibition of DNA synthesis in Xenopus egg extracts. The data set is classed as biochemical. The note with it: [α-32P]dATP incorporation after 3 h. The procedure:
Metaphase-arrested Xenopus egg extracts were prepared as described previously by Blow “J. Cell Biol.” 1993; 122:993 and stored in liquid nitrogen. Demembranated Xenopus sperm nuclei were prepared as described. by Blow & Laskey “Cell” 1986; 47:577. After thawing, extracts were supplemented with 25 mM phosphocreatine, 5 μg/ml creatine phosphokinase, 250 μg/ml cycloheximide, [α-^32P]dATP (for DNA synthesis assays). Demembranated sperm nuclei were added to a final sperm concentration of 3 ng/μl DNA extract and CDK inhibitor tested was then added at different concentrations. […] DNA synthesis was assessed by releasing extract into interphase by the addition of 0.3 mM CaCl2 and measuring the total amount of [α-^32P]dATP incorporation after 3 h by TCA co-precipitation.

The next data set has as its target cdk1/cyclin B (CDC2) (Homo sapiens, UniProt P06493). Briefly: CDK inhibition assay, cdk1/cyclin B (CDC2) kinase, histone phosphorylation. The data set is classed as biochemical. Put shortly:
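Radiometric endpoint kinase assay under linear conditions: histone (1 mg/ml) phosphorylated with 15 μM ATP and [γ-32P]ATP in 50 mM HEPES pH 7.4, 10 mM MgCl2, 1 mM DTT. IC50 obtained graphically from dose-response curves of % maximal activity, read by imaging analyzer.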

For another data set, the target named is IκB-α kinase. Briefly: IκB-α kinase inhibition, in vitro kinase assay. The class given is biochemical.
Data set [1] relates to Cytokinin-dependent tobacco callus Nicotiana tabacum L. cv. Wisconsins 38. The data set can be described thus: Tobacco callus bioassay for cytotoxicity (herbicidal activity). The data set is classed as cell-based. The note with it: Nicotiana tabacum, 672 h. Put shortly:
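Compounds were prepared in DMSO as a 10^−3 M stock in water. Growth inhibition was scored from fresh callus weight gain after four weeks, with five replicates and the test run at least twice.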

The next data set has as its system β-adrenergic receptors. Briefly: Modulation of isoproterenol-induced cAMP synthesis in rat C6 glioma. The data set is classed as cell-based. As to conditions: cAMP synthesis induced by 5 μM (−) isoproterenol, simultaneous addition, 30 min. The method, then:
Mechanism of action of novel compounds is presented on FIG. 3. Rat C6 glioma (ATCC N° CCL107) was cultivated in monolayer in serum-free chemically defined medium containing Ham's F10/minimal essential medium (1:1 vol/vol), 2 mM L-glutamine, 1% (vol/vol) minimal essential medium vitamins (100×), 1% (vol/vol) minimal essential medium nonessential amino acids (100×), 100 U/ml penicillin, 100 μg/ml streptomycin and 30 nM sodium selenide. Incubation was at 37° C. in a humidified atmosphere. Assays were performed in the logarithmic growth phase at a density of 2.5×10^5 cells/cm^2. Intracellular cAMP synthesis was induced by addition of 5 μM (−) isoproterenol. After 30 min incubation at 37° C. the medium was removed and the cellular amount of cAMP determined using the cAMP-enzyme immunoassay kit of Amersham. The I50 is determined from a dose-response curve in duplicate.
The effect of seven purine-analogs was measured after simultaneous addition with isoproterenol.

For another data set, the system named is B16. Briefly: In vitro cytotoxic activity, Calcein AM. The data set is classed as cell-based. As to conditions: three days.
The test system of data set [2] is CEM (human lymphoblastoid leukemia). Briefly: In vitro cytotoxic activity, Calcein AM. The data set is classed as cell-based. The note with it: three days. Put shortly: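 CEM cells were seeded at 10^4/well in DMEM + 10% FBS and exposed to six concentrations from 200 to 0.2 μM, in triplicate, for 3 days at 37 °C and 5% CO2. Viable cells were then measured by Calcein AM fluorescence after 1 h loading.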

Data set [3] addresses cdc2a-MS protein (plant CDK, cdc2Ms kinase) (Vicia faba, UniProt A0AAV0YZ35). The data set can be described thus: CDK inhibitory activity on plant kinases (plant CDK). The data set is classed as biochemical. As to conditions: histone H1 phosphorylation. The procedure: Protein extraction and purification of pant CDK by binding to p13^suc1-beads or immunopurification with an antibody specific to the cdc2a-MS protein was carried out as described previously (Bögre et al. 1997, Plant Physiol. 113, 1997, 841-852). The MMK1 protein kinase was purified with a specific antibody from Vicia faba extracts as described by Bögre et al. 1997a, Plant Cell 9, 75-83). Protein kinase activity was measures as described above in Example 20. The quantification of radioactivity incorporated into histone H1 or myelin basic protein was undertaken using phosphoimager (FIG. 2).

The mark [4] stands for this setting: read-out: 10^−5 M BAP IC50, 10^−5 M 6-benzylaminopurine, four weeks.
Where [5] appears, read: read-out: 10^−6 M BAP IC50, 10^−6 M 6-benzylaminopurine, four weeks.

cdk1/cyclin B (CDC2), sequence (P06493 whole entry, species assumed): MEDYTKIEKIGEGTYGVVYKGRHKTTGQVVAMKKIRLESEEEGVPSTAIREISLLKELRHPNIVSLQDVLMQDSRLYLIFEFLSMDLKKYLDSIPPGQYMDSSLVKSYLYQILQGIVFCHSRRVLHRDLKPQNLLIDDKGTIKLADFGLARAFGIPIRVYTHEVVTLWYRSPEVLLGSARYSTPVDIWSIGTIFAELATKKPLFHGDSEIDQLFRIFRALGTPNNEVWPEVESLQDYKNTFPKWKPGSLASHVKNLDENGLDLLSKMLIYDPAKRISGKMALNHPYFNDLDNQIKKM
cdk1/cyclin B (CDC2), sequence (P14635 whole entry partner, species assumed): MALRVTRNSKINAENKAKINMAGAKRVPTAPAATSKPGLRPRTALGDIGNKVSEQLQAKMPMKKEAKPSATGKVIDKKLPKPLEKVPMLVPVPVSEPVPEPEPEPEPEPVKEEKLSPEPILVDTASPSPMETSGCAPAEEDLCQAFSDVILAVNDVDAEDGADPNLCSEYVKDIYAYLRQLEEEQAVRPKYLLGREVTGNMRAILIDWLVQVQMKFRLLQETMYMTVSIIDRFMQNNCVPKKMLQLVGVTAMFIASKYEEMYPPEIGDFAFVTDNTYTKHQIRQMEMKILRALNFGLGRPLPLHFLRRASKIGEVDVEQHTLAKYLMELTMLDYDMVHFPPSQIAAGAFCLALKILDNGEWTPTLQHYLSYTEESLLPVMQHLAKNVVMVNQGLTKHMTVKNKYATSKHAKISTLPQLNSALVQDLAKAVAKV
cdc2a-MS protein (plant CDK, cdc2Ms kinase), sequence (A0AAV0YZ35 1-294): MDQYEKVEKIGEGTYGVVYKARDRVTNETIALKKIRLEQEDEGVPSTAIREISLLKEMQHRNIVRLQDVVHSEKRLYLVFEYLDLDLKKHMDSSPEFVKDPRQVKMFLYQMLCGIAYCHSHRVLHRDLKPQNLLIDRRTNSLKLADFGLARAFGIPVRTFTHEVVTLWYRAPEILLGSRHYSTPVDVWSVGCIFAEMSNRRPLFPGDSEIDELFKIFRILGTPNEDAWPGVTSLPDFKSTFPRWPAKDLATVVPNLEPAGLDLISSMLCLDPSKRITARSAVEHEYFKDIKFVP

Usually melting point stands for the temperature, or range, at which the solid turns liquid. `CC(C)c1n[nH]c2c(Nc3cccc(Cl)c3)nc(Cl)nc12` [Example 11, 7-(3-chloroanilino)-5-chloro-3-isopropylpyrazolo[4,3-d]pyrimidine] showed a melting point of 257 to 259 °C.

What is called IC50 is the concentration needed to halve the response being measured. Regarding `CC(C)c1n[nH]c2c(Nc3ccc(Cl)c(N)c3)nc(NCCCO)nc12`, in the data set on DNA synthesis, the IC50 was 400 nM.

Turning to `CC[C@H](CO)Nc1nc(NCc2ccc(Cl)c(N)c2N)c2[nH]nc(C(C)C)c2n1`, the IC50 was 200 nM against cdk1/cyclin B (CDC2); 400 nM against IκB-α kinase; 49 µM in data set [1] (setting [4]); 8.3 µM in data set [1] (setting [5]); 300 nM with DNA synthesis.

`COc1ccc(CNc2nc(NCc3ccc(OC)cc3)c3[nH]nc(C(C)C)c3n2)cc1` [Example 17, 5,7-di[(4-methoxybenzyl)amino]-3-isopropylpyrazolo[4,3-d]pyrimidine] gave a melting point of 60 to 85 °C.

Turning to `CC(C)c1n[nH]c2c(NCc3ccccc3)nc(NCCN)nc12` [Example 14, 7-benzylamino-5-(2-aminoethyl)amino-3-isopropylpyrazolo[4,3-d]pyrimidine], the melting point was in the range of 145 to 147 °C. On cdk1/cyclin B (CDC2), this molecule showed an IC50 of 400 nM. This molecule showed an IC50 against IκB-α kinase of 1200 nM. Besides, the IC50 in [1] (setting [4]) was greater than 50 µM. For the same molecule, the IC50 in data set [1] (setting [5]) is greater than 50 µM. Also, the “Effect: activation” value in the data set with β-adrenergic receptors is 1.3-fold activation.

Broadly, the GI50 is the concentration giving 50% growth inhibition. In the case of `COc1cc(O)c(CNc2nc(N[C@@H](CO)C(C)C)nc3c(C(C)C)n[nH]c23)c(O)c1`, the GI50 in the data set on B16 is 2.7 µM; in data set [2], 1200 nM. Moreover, the half-inhibitory concentration (IC50) in [3] stood at 0.7 nM.

In the data set on DNA synthesis, `CC(C)c1n[nH]c2c(NCc3cccc(Cl)c3O)nc(NCCCO)nc12` gave an IC50 of 3700 nM.

In the case of `CC[C@H](CO)Nc1nc(NCc2cc(O)c(OC)cc2O)c2[nH]nc(C(C)C)c2n1`, the GI50 in the data set with B16 was 5.7 µM; in data set [2] it was 3500 nM. The same molecule yielded an IC50 in data set [3] of 2 nM.
